US20240239752A1, “BICYCLIC HETEROAROMATIC INHIBITORS OF KLK5” (BioCryst Pharmaceuticals, Inc., priority 2021, published 2024)

Target: T1, recombinant human KLK5 (Homo sapiens, UniProt Q9Y337)
T1 construct: purchased Novoprotein or R&D Systems C415 or 1108-SE
T1 sequence (Q9Y337 23-293): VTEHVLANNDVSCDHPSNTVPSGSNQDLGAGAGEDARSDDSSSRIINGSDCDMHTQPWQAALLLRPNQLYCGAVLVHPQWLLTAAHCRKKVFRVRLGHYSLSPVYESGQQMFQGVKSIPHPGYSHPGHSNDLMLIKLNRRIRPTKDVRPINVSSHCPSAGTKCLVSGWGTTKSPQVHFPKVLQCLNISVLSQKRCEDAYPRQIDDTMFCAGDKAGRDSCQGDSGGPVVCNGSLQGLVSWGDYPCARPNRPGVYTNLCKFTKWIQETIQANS
Experiment: Kallikrein (KLK) 5 enzymatic assay (Boc-VPR-AMC fluorogenic substrate)
Format: biochemical
Settings: recombinant human KLK5 0.1 μg/well, Boc-VPR-AMC 100 μM, pH 7.5, room temperature, 1% DMSO; tested a minimum of three times
Procedure, shortened: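 Fluorogenic rate assay at pH 7.5 (0.1 M NaH2PO4, 1% DMSO, room temperature), run at least three times per compound. Compound was premixed with 0.1 μg/well recombinant human KLK5 before adding 100 μM Boc-VPR-AMC; AMC release was read at ex 380/em 460 nm, and IC50 derived from inhibition of rate vs DMSO control.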

`COc1c(C(=N)N)cccc1-c1ccc2c(c1)c(COc1ccccc1CC(=O)O)nn2C1CCC1` [Compound 238d, 2-(2-((5-(3-carbamimidoyl-2-methoxyphenyl)-1-cyclobutyl-1H-indazol-3-yl)methoxy)phenyl)acetic acid] and `Nc1nccc2c(-c3ccc4c(c3)c(COc3ccccc3CC(=O)O)nn4C3CCCCC3)cccc12` [Compound 225b, 2-(2-((5-(1-aminoisoquinolin-5-yl)-1-cyclohexyl-1H-indazol-3-yl)methoxy)phenyl)acetic acid] cannot be ordered by IC50: under 1000 nM for the first, under 1000 nM for the second.

`Cc1cc(-c2cccc3c(N)nccc23)cc2c1CCC2Oc1ccccc1CC(=O)O` (stereo not shown) [Compound 206b, 2-(2-((6-(1-aminoisoquinolin-5-yl)-4-methyl-2,3-dihydro-1H-inden-1-yl)oxy)phenyl)acetic acid] and `Nc1nccc2c(-c3cc(F)c4c(c3)C(Oc3ccccc3CC(=O)O)CC4)cccc12` (stereo not shown) [Compound 208b, 2-(2-((6-(1-aminoisoquinolin-5-yl)-4-fluoro-2,3-dihydro-1H-inden-1-yl)oxy)phenyl)acetic acid] cannot be ordered by IC50: under 1000 nM for the first, under 1000 nM for the second.

`Cc1cccc(OCc2nn(C3CCC3)c3ccc(-c4ccc5ccnc(N)c5c4)cc23)c1CC(=O)O` [Compound 161c, 2-(2-((5-(1-aminoisoquinolin-7-yl)-1-cyclobutyl-1H-indazol-3-yl)methoxy)-6-methylphenyl)acetic acid] and `Nc1nccc2ccc(-c3ccc4c(c3)c(COc3ccccc3CC(=O)O)nn4CC3CCC3)cc12` [Compound 253b, 2-(2-((5-(1-aminoisoquinolin-7-yl)-1-(cyclobutylmethyl)-1H-indazol-3-yl)methoxy)phenyl)acetic acid] cannot be ordered by IC50: under 1000 nM for the first, under 1000 nM for the second.

`Nc1nccc2c(-c3cc(C4CC4)c4c(c3)C(Oc3ccccc3CC(=O)O)CC4)cccc12` (stereo not shown) [Compound 257b, 2-(2-((6-(1-aminoisoquinolin-5-yl)-4-cyclopropyl-2,3-dihydro-1H-inden-1-yl)oxy)phenyl)acetic acid] and `Nc1nccc2c(-c3cc(-c4ccoc4)c4c(c3)C(Oc3ccccc3CC(=O)O)CC4)cccc12` (stereo not shown) [Compound 261b, 2-(2-((6-(1-aminoisoquinolin-5-yl)-4-(furan-3-yl)-2,3-dihydro-1H-inden-1-yl)oxy)phenyl)acetic acid] cannot be ordered by IC50: under 1000 nM for the first, under 1000 nM for the second.

`Nc1nccc2c(-c3cnc4c(c3)c(COc3ccccc3CC(=O)O)cn4C3CCOC3)cccc12` (stereo not shown) [Compound 279g, 2-(2-((5-(1-aminoisoquinolin-5-yl)-1-(tetrahydrofuran-3-yl)-1H-pyrrolo[2,3-b]pyridin-3-yl)methoxy)phenyl)acetic acid] and `Nc1nccc2c(-c3ccc4c(c3)c(COc3ccccc3CC(=O)O)cn4C3CCOC3)cccc12` (stereo not shown) [Compound 458f, 2-(2-((5-(1-aminoisoquinolin-5-yl)-1-(tetrahydrofuran-3-yl)-1H-indol-3-yl)methoxy)phenyl)acetic acid] cannot be ordered by IC50: under 1000 nM for the first, under 1000 nM for the second.

`Nc1nccc2c(-c3ccc4nn(C5CCC5)c(COc5cc(F)ccc5CC(=O)O)c4c3)cccc12` [Compound 150b, 2-(2-((5-(1-aminoisoquinolin-5-yl)-2-cyclobutyl-2H-indazol-3-yl)methoxy)-4-fluorophenyl)acetic acid] and `COc1ccc(CC(=O)O)c(OCc2nn(C3CCC3)c3ccc(-c4cccc5c(N)nccc45)cc23)c1` [Compound 169c, 2-(2-((5-(1-aminoisoquinolin-5-yl)-1-cyclobutyl-1H-indazol-3-yl)methoxy)-4-methoxyphenyl)acetic acid] cannot be ordered by IC50: under 1000 nM for the first, under 1000 nM for the second.

First: Cc1ccc(CC(=O)O)c(OCc2nn(C)c3ccc(-c4cccc(C(=N)N)c4)cc23)c1 [Compound 104d, 2-(2-((5-(3-carbamimidoylphenyl)-1-methyl-1H-indazol-3-yl)methoxy)-4-methylphenyl)acetic acid]
Second: CC(C)n1nc(COc2ccccc2CC(=O)O)c2cc(-c3cccc(-c4nnc[nH]4)c3)ccc21 [Compound 52c, 2-(2-((5-(3-(4H-1,2,4-triazol-3-yl)phenyl)-1-isopropyl-1H-indazol-3-yl)methoxy)phenyl)acetic acid]
The IC50 of the first is lower: under 1000 nM for the first, over 10000 nM for the second. The first is the more potent here.

`CC(C)COC(=O)N1CC[C@@H](n2nc(COc3ccccc3CC(=O)O)c3cc(-c4cccc5c(N)nccc45)ccc32)C1` [Compound 365b, (R)-2-(2-((5-(1-aminoisoquinolin-5-yl)-1-(1-(isobutoxycarbonyl)pyrrolidin-3-yl)-1H-indazol-3-yl)methoxy)phenyl)acetic acid] and `COCCN1CCC(n2nc(COc3ccccc3CC(=O)O)c3cc(-c4cccc5c(N)nccc45)ccc32)C1` (stereo not shown) [Compound 303c, 2-(2-((5-(1-aminoisoquinolin-5-yl)-1-(1-(2-methoxyethyl)pyrrolidin-3-yl)-1H-indazol-3-yl)methoxy)phenyl)acetic acid] cannot be ordered by IC50: under 1000 nM for the first, under 1000 nM for the second.

First: COCCN1CC(n2nc3ccc(-c4ccc5ccnc(N)c5c4)cc3c2COc2ccccc2CC(=O)O)C1 [Compound 122b, 2-(2-((5-(1-aminoisoquinolin-7-yl)-2-(1-(2-methoxyethyl)azetidin-3-yl)-2H-indazol-3-yl)methoxy)phenyl)acetic acid]
Second: COc1cc2nn(C3CCC3)c(COc3ccccc3CC(=O)O)c2cc1-c1ccc2ccnc(N)c2c1 [Compound 269f, 2-(2-((5-(1-aminoisoquinolin-7-yl)-2-cyclobutyl-6-methoxy-2H-indazol-3-yl)methoxy)phenyl)acetic acid]
The IC50 of the first is higher: 1000 to 10000 nM for the first, under 1000 nM for the second. The second is the more potent here.

First: CC(C)n1nc(COc2ccccc2CC(=O)O)c2cc(-c3ccn4ncc(N)c4n3)ccc21 [Compound 33c, 2-(2-((5-(3-aminopyrazolo[1,5-a]pyrimidin-5-yl)-1-isopropyl-1H-indazol-3-yl)methoxy)phenyl)acetic acid]
Second: CC(C)n1nc(C(=O)Nc2ccccc2CC(=O)O)c2cc(-c3ccc4ccnc(N)c4c3)ccc21 [Compound 63d, 2-(2-(5-(1-aminoisoquinolin-7-yl)-1-isopropyl-1H-indazole-3-carboxamido)phenyl)acetic acid]
The IC50 of the first is higher: over 10000 nM for the first, 1000 to 10000 nM for the second.

`CCCN1CCC2(CC1)C[C@@H](Oc1ccccc1CC(=O)O)c1cc(-c3cccc4c(N)nccc34)ccc12` [Compound 417b, (R)-2-(2-((5-(1-aminoisoquinolin-5-yl)-1′-propyl-2,3-dihydrospiro[indene-1,4′-piperidin]-3-yl)oxy)phenyl)acetic acid] and `Nc1nccc2ccc(-c3ccc4c(c3)[C@H](Oc3ccccc3CC(=O)O)CC43CCN(CC(=O)O)CC3)cc12` [Compound 414c, (R)-2-(2-((5-(1-aminoisoquinolin-7-yl)-1′-(carboxymethyl)-2,3-dihydrospiro[indene-1,4′-piperidin]-3-yl)oxy)phenyl)acetic acid] cannot be ordered by IC50: under 1000 nM for the first, under 1000 nM for the second.

`CC(C)(C)OC(=O)N1CC(Cn2nc(COc3ccccc3CC(=O)O)c3cc(-c4cccc5c(N)nccc45)ccc32)C1` [Compound 195b, 2-(2-((5-(1-aminoisoquinolin-5-yl)-1-((1-(tert-butoxycarbonyl)azetidin-3-yl)methyl)-1H-indazol-3-yl)methoxy)phenyl)acetic acid] and `CC(C)(C)OC(=O)NC1CC(n2nc3ccc(-c4cccc5c(N)nccc45)cc3c2COc2ccccc2CC(=O)O)C1` (stereo not shown) [Compound 135f, 2-(2-((5-(1-aminoisoquinolin-5-yl)-2-(3-(tert-butoxycarbonylamino)cyclobutyl)-2H-indazol-3-yl)methoxy)phenyl)acetic acid] cannot be ordered by IC50: under 1000 nM for the first, under 1000 nM for the second.

`CCOC(=O)N1CC[C@@H](n2nc(COc3ccccc3CC(=O)O)c3cc(-c4ccc5ccnc(N)c5c4)ccc32)C1` [Compound 342b, (R)-2-(2-((5-(1-aminoisoquinolin-7-yl)-1-(1-(ethoxycarbonyl)pyrrolidin-3-yl)-1H-indazol-3-yl)methoxy)phenyl)acetic acid] and `Nc1nccc2ccc(-c3ccc4c(c3)c(COc3ccccc3CC(=O)O)nn4CC3CCOC3)cc12` (stereo not shown) [Compound 89b, 2-(2-((5-(1-aminoisoquinolin-7-yl)-1-((tetrahydrofuran-3-yl)methyl)-1H-indazol-3-yl)methoxy)phenyl)acetic acid] cannot be ordered by IC50: under 1000 nM for the first, under 1000 nM for the second.

Compared with `N#Cc1cccc(OCc2nn(C3CCOC3)c3ccc(-c4cccc5c(N)nccc45)cc23)c1CC(=O)O` (stereo not shown) [Compound 293b, 2-(2-((5-(1-aminoisoquinolin-5-yl)-1-(tetrahydrofuran-3-yl)-1H-indazol-3-yl)methoxy)-6-cyanophenyl)acetic acid], `COc1cc2nn(C3CCC3)c(COc3ccccc3CC(=O)O)c2cc1-c1cccc2c(N)nccc12` [Compound 270b, 2-(2-((5-(1-aminoisoquinolin-5-yl)-2-cyclobutyl-6-methoxy-2H-indazol-3-yl)methoxy)phenyl)acetic acid] is higher in IC50: under 1000 nM for the first, over 10000 nM for the second.

`Cc1ccc(CC(=O)O)c(O[C@@H]2CCc3ccc(-c4cccc5c(N)nccc45)cc32)c1` [Compound 426b, (R)-2-(2-((6-(1-aminoisoquinolin-5-yl)-2,3-dihydro-1H-inden-1-yl)oxy)-4-methylphenyl)acetic acid] and `Cc1cccc(O[C@@H]2CCc3ccc(-c4ccc5ccnc(N)c5c4)cc32)c1CC(=O)O` [Compound 260b, (R)-2-(2-((6-(1-aminoisoquinolin-7-yl)-2,3-dihydro-1H-inden-1-yl)oxy)-6-methylphenyl)acetic acid] cannot be ordered by IC50: under 1000 nM for the first, under 1000 nM for the second.

Work on `Cc1cccc(OC2CC3(CCN(S(C)(=O)=O)CC3)c3ccc(-c4cccc5c(N)nccc45)cc32)c1CC(=O)O` (stereo not shown) [Compound 449b, 2-(2-((5-(1-aminoisoquinolin-5-yl)-1′-(methylsulfonyl)-2,3-dihydrospiro[indene-1,4′-piperidin]-3-yl)oxy)-6-methylphenyl)acetic acid] yielded an IC50 of under 1000 nM.
